Experimental data reported in paper PMC10385850, “Modified Hederagenin Derivatives Demonstrate Ex Vivo Anthelmintic Activity against Fasciola hepatica” (Pharmaceutics, 2023).

Assays:
[1] = system: F. hepatica newly excysted juveniles (NEJs), Italian strain; assay: Ex vivo screen against newly excysted juveniles (NEJs), phenotype and motility scoring; assay type: cell-based, Fasciola hepatica; conditions: 10 µM; for Average phenotype of 25 NEJs with 95% CI, 24 hours / Average phenotype of 25 NEJs with 95% CI, 48 hours / Average phenotype of 25 NEJs with 95% CI, 72 hours: ultrastructure score 1 normal to 6 dead or dissolved; for Activity against NEJs (first screen), in words: 72 h co-culture
Method in brief: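 Newly excysted juveniles of the Italian strain of F. hepatica were obtained by excysting metacercariae and exposed ex vivo to test compounds at 10 μM final concentration in 0.1% DMSO. Controls were 0.1% DMSO (negative) and 10 μM TCBZ in 0.1% DMSO (positive). Motility was scored from 1 (good/normal) to 5 (no movement), and ultrastructural phenotype changes were scored with an established matrix.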

[2] = system: wild strain adult F. hepatica; assay: Ex vivo motility assay on adult liver flukes (wild strain); assay type: cell-based, Fasciola hepatica; conditions: 40 µM; for Effect on wild strain adult fluke motility, in words: 72 h; for Average motility of 4 parasites with 95% CI at 72 hour time point: wild strain adult flukes, score 1 good/normal to 6 no movement or dead
Method in brief: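 Wild-strain adult F. hepatica of unknown provenance (n = 4 per condition) were exposed ex vivo to 40 µM compound in 0.4% DMSO for 72 h. Motility was scored from 1 (normal) to 6 (no movement/dead).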

[3] = system: immature F. hepatica flukes (Italian strain); assay: Ex vivo motility assay on immature liver flukes (Italian strain), single concentration and dose response; assay type: cell-based, Fasciola hepatica; conditions: 40 µM; for Average motility of 4 parasites with 95% CI at 24 hour time point / Average motility of 4 parasites with 95% CI at 48 hour time point / Average motility of 4 parasites with 95% CI at 72 hour time point: immature flukes; for Average motility of 4 parasites with 95% CI at 24 hour time point: score 1 normal to 5 no movement or death; for Average motility of 4 parasites with 95% CI at 48 hour time point / Average motility of 4 parasites with 95% CI at 72 hour time point: score 1 to 5; for Effect on immature fluke motility, in words: by 72 h
Protocol: The six selected compounds (at 40 µM in 0.4% DMSO) were evaluated on immature flukes (n = 4/condition) at 24, 48 and 72 h (Table S4). The protocol for culturing and scoring (motility) of these life stages have been previously described. Due to restricted numbers of immature worms, a dose response assay was conducted only for MC042. Here, immature worms (n = 2/concentration tested) were screened against descending concentrations of MC042 (40 µM, 13.3 µM and 4.4 µM); motility scores were recorded at 24, 48 and 72 h (Table S5). The scoring pattern used is identical to that described for NEJs.

[4] = system: adult F. hepatica flukes (Italian strain); assay: Ex vivo dose response motility assay on adult liver flukes (Italian strain); assay type: cell-based, Fasciola hepatica; conditions: for Selectivity Index (SI) on Adult Flukes SI=CC50/EC50, 72 hour: CC50 in MDBK cells (24 h) / EC50 adult flukes 72 h; for EC50: Fasciola hepatica, adult flukes, motility, read-out: EC50 with 95% CI on Adult Flukes (motility), 72 hour; for Effect on adult fluke (Italian strain) movement, in words: dose response, MC042 statement at 40 μM after 72 h
Protocol: The collection, ex vivo culturing and screening of adult liver fluke (Italian strain; n = 3/condition) was previously described. Dose response assays (40 µM, 13.3 µM and 4.4 µM) were conducted for MC014, MC042, MC035, MC055 and MC062 with motility scores recorded at 24, 48 and 72 h (Table S6).

[5] = MTT cell viability assay on MDBK cells; assay type: cell-based, bovine; conditions: bovine, MDBK cells (Madin–Darby bovine kidney); MDBK cells, MTT, 24 h exposure; read-out: CC50 with 95% CI on MDBK cells (cytotoxicity)
Protocol: MTT cell viability assays were performed on Madin–Darby bovine kidney (MDBK cells) for the five selected hederagenin derivatives (MC014, MC035, MC042, MC055 and MC062) using final concentrations of 100 μM, 75 μM, 50 μM, 25 μM, 10 μM, 5 μM and 1 μM (in 1% DMSO). Negative (1% v/v Triton X-100, Sigma-Aldrich, UK) and positive (1% v/v DMSO or media only) controls were included. The protocol was followed as previously described. Absolute EC50 values were calculated from the corrected absorbance of replicates by non-linear regression, after log transformation of concentrations and data normalization (where DMSO values represents 0% inhibition and TX-100 values represent 100% inhibition) using GrapPad Prism 8.

F. hepatica = system: F. hepatica; parameters: method as in PMID 4034744; conditions: cited from earlier work
[6] = 4.4 µM, adult flukes Italian strain, score 1 to 6
[7] = adult flukes Italian strain, score 1 to 6
[8] = 72 h, adult flukes Italian strain, score 1 to 6

Compound | Average phenotype of 25 NEJs with 95% CI, 24 hours ([1]; 24 h) | Average phenotype of 25 NEJs with 95% CI, 48 hours ([1]; 48 h) | Average phenotype of 25 NEJs with 95% CI, 72 hours ([1]; 72 h) | Activity against NEJs (first screen), in words [1] | Effect on wild strain adult fluke motility, in words [2] | Average motility of 4 parasites with 95% CI at 72 hour time point [2] | Average motility of 4 parasites with 95% CI at 24 hour time point [3] | Average motility of 4 parasites with 95% CI at 48 hour time point [3] | Average motility of 4 parasites with 95% CI at 72 hour time point [3] | Effect on immature fluke motility, in words [3] | Average motility of 3 parasites treated with 4.4 µM, 24 hours [4, 6] | Average motility of 3 parasites treated with 4.4 µM, 48 hours [4, 6] | Average motility of 3 parasites treated with 13.3 µM, 24 hours [4, 7] | Average motility of 3 parasites treated with 13.3 µM, 48 hours [4, 7] | Average motility of 3 parasites treated with 13.3 µM, 72 hours [4, 8] | Average motility of 3 parasites treated with 40 µM, 24 hours [4, 7] | Average motility of 3 parasites treated with 40 µM, 48 hours [4, 7] | Average motility of 3 parasites treated with 40 µM, 72 hours [4, 8] | Selectivity Index (SI) on Adult Flukes SI=CC50/EC50, 72 hour [4] | EC50 ([4]; 72 h) | other results
CC1(C)CC[C@]2(NC(=O)N3CCCC3)CC[C@]3(C)C(=CCC4[C@@]5(C)CC[C@H](O)[C@@](C)(CO)C5CC[C@]43C)C2C1 (stereo partly drawn) [MC055, N-((4aS,6aS,6bR,9R,10S,12aR)-10-Hydroxy-9-(hydroxymethyl)-2,2,6a,6b,9,12a-hexamethyl-1,3,4,5,6,6a,6b,7,8,8a,9,10,11,12,12a,12b,13,14b-octadecahydropicen-4a(2H)-yl)pyrrol-idine-1-carboxamide] | 6.00 (6.0;6.0) | 6.00 (6.0;6.0) | 6.00 (6.0;6.0) | maximal alterations to both phenotype/ultrastructure and motility | partial paralysis | 5.25 (4.7;5.7) | 2.75 (1.8;3.6) | 5.00 (5.0;5.0) | 5.00 (5.0;5.0) | paralyzed the assayed immature flukes | 1.00 (1.0;1.0) | 1.00 (1.0;1.0) | 1.00 (1.0;1.0) | 1.00 (1.0;1.0) | 4.66 (3.3;5.9) | 3.00 (3.0;3.0) | 3.66 (3.0;4.3) | 5.00 (5.0;5.0) | 5.72 | 6.06 µM | Average motility of 25 NEJs with 95% CI, 24 hours ([1]; 24 h, motility score 1 good/normal to 5 no movement): 5.00 (5.0;5.0); Average motility of 25 NEJs with 95% CI, 48 hours ([1]; 48 h, motility score 1 good/normal to 5 no movement): 5.00 (5.0;5.0); Average motility of 25 NEJs with 95% CI, 72 hours ([1]; 72 h, motility score 1 good/normal to 5 no movement): 5.00 (5.0;5.0); Average motility of 3 parasites treated with 4.4 µM, 72 hours ([4]; 4.4 µM, 72 h, adult flukes Italian strain, score 1 to 6): 3.00 (3.0;3.0); Effect on adult fluke (Italian strain) movement, in words [4]: Decreased movement; CC50 at 24 h [5]: 34.7 µM
CN1CCN(C(=O)N[C@]23CCC(C)(C)CC2C2=CCC4[C@@]5(C)CC[C@@H]6OC(C)(C)OC[C@@]6(C)C5CC[C@@]4(C)[C@]2(C)CC3)CC1 (stereo partly drawn) [MC062, 4-Methyl-N-((4aR,6aR,6bS,8aS,14bR,16aS)-2,2,4a,6a,6b,11,11,14b-octamethyl-4a,5,6,6a, 6b,7,8,9,10,11, 12,12a,14,14a,14b,15,16,16a-octadecahydro-4H-piceno[3,4-d][1,3]dioxin-8a(4bH)-yl)piperazine-1-carboxamide] | 6.00 (6.0;6.0) | 6.00 (6.0;6.0) | 6.00 (6.0;6.0) | maximal alterations to both phenotype/ultrastructure and motility | partial paralysis | 5.00 (5.0;5.0) | 5.00 (5.0;5.0) | 5.00 (5.0;5.0) | 5.00 (5.0;5.0) | paralyzed the assayed immature flukes | 1.00 (1.0; 1.0) | 1.00 (1.0; 1.0) | 1.00 (1.0; 1.0) | 1.66 (1.0; 2.3) | 5.00 (5.0; 5.0) | 3.00 (3.0;3.0) | 4.00 (4.0;4.0) | 5.00 (5.0;5.0) | 2.43 | 5.61 µM | Effect on adult fluke (Italian strain) movement, in words [4]: Decreased movement; CC50 at 24 h [5]: 13.7 µM
C[C@@H]1O[C@@H](O[C@H]2[C@H](O[C@H]3CC[C@@]4(C)[C@@H](CC[C@]5(C)[C@@H]4CC=C4[C@@H]6CC(C)(C)CC[C@]6(C(=O)O)CC[C@]45C)[C@]3(C)CO)OC[C@H](O)[C@@H]2O)[C@H](O)[C@H](O)[C@H]1O [α-Hederin] | – | – | – | – | – | – | – | – | – | – | – | – | – | – | – | – | – | – | – | – | Activity against F. hepatica, in words (F. hepatica): lethal activity
